# Experiments:
# Settings in all cases: 25 nM protease, 10 µM peptide
# pancreatic elastase I = pancreatic elastase I (Sus scrofa, UniProt P00772); test: Cleavage of peptides by purified pancreatic elastase, MALDI-TOF/TOF
# trypsin-2 = trypsin-2 (Homo sapiens, UniProt P07478); test: Cleavage of peptides by purified trypsin-2, MALDI-TOF/TOF
# Excerpt: (§1) Trypsin-like proteases included in the experiments are trypsin-1, -2 and -3, tryptase (Enzo LifeSciences), thrombin (Sigma-Aldrich) and cathepsin G (Sigma-Aldrich). Trypsin-1, -2 and -3 were produced as described by Koistinen et al. and Wu et al.. Two elastase-like enzymes, neutrophil elastase (Enzo LifeSciences, Farmingdale, NY, USA) and pancreatic elastase I (Sigma-Aldrich) were included as well. All enzymes were from human origin except for pancreatic elastase from porcine pancreas.
# (§2) Reaction mixtures with purified enzymes were compiled in an identical way. Each mixture contained an equimolar concentration of protease (25 nM based on) and 10 µM peptide of interest and was incubated for 2, 5, 10 and 30 min at 37 °C. Substance P was added as the standard peptide except for the reaction mixtures with substance P or bradykinin as the peptide of interest, where angiotensin II (Bachem) was added.
# (§3) The TFA mixtures were thawed on ice and desalted using C18 zip-tips (Merck Millipore®, Burlington, MA, USA) with a capacity of 5 µg protein. Retained peptide fragments were eluted directly on the MALDI target plate. Next, 0.5 µL of a 2.5 mg/mL α-cyano-4-hydroxycinnamic acid (Sigma-Aldrich) matrix solution (in 70% acetonitrile, 0.1% TFA) was spotted on top of the sample. A 6-Peptide mixture Kit (AB Sciex, Framingham, MA, USA) containing bradykinin (2–9), angiotensin I, glu1-fibrinopeptide, ACTH (1–17), ACTH (18–39) and ACTH (7–38) was diluted with matrix and spotted on the plate as well.
# (§4) MS and MS/MS data for peptide fragment identification were obtained with a MALDI-TOF/TOF instrument (4800 MALDI TOF/TOF™, Applied Biosystems, Waltham, MA, USA) and instrument parameters were set using 4000 Series Explorer™ software. MS spectra were recorded in positive reflector mode in a mass range from 500 to 4000 Da and laser intensity of 4500–4800 Hz. The spectra were calibrated using the calibration mixture mentioned above to a mass tolerance of 0.1 Da. MS/MS spectra were recorded with high-energy collision-induced dissociation and the laser intensity was increased by 10%. Precursor mass m/z 1570.65 (Glu1-Fibrinopeptide from the calibration mixture) was used to calibrate the MS/MS spectra to a mass tolerance of 0.1 Da.
# (§5) MS and MS/MS spectra were processed using DataExplorer™ software and the obtained output files were uploaded in the MS-PEP data analyzer (https://bioit.shinyapps.io/PARs/ accessed 10/08/2020) for peptide fragment identification. Identified fragments were confirmed using the MS/MS spectra and mMass 5.5.0 by Martin Strohalm. The relative intensities of the fragments were calculated as the ratio of the intensity of the peak of interest to the intensity of the peak of the standard peptide.
# cathepsin G = target: T1, cathepsin G (Homo sapiens, UniProt P08311); test: Cleavage of peptides by purified cathepsin G, MALDI-TOF/TOF
# T1 sequence (P08311 21-255): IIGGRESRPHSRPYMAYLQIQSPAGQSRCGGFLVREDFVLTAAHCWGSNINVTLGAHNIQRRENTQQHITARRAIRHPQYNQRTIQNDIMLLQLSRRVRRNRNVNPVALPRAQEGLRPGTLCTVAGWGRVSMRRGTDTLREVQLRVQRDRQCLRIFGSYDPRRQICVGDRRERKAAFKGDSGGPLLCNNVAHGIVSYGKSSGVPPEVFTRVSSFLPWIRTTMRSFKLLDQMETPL
# Excerpt: as §1
# (§6) Reaction mixtures with purified enzymes were compiled in an identical way. […] Substance P was added as the standard peptide except for the reaction mixtures with substance P or bradykinin as the peptide of interest, where angiotensin II (Bachem) was added.
# as §3
# as §4, with “10%.” for “10%. Precursor mass m/z 1570.65 (Glu1-Fibrinopeptide from the calibration mixture) was used to calibrate the MS/MS spectra to a mass tolerance of 0.1 Da.”
# (§7) Identified fragments were confirmed using the MS/MS spectra and mMass 5.5.0 by Martin Strohalm. The relative intensities of the fragments were calculated as the ratio of the intensity of the peak of interest to the intensity of the peak of the standard peptide.
# thrombin = thrombin (Homo sapiens, UniProt P00734); test: Cleavage of peptides by purified thrombin, MALDI-TOF/TOF
# Excerpt: as §1, §2, §3, §4, §5
# neutrophil elastase = target: T2, neutrophil elastase (Homo sapiens, UniProt P08246); test: Cleavage of peptides by purified neutrophil elastase, MALDI-TOF/TOF
# T2 sequence (P08246 30-267): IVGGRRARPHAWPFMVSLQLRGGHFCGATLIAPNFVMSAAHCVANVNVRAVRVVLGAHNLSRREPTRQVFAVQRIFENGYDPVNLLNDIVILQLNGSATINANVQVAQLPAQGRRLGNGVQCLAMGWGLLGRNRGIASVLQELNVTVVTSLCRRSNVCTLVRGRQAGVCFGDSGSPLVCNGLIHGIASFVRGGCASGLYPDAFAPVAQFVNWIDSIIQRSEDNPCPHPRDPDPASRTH
# Excerpt: as §1, §6, §3
# as §4, with “10%.” for “10%. Precursor mass m/z 1570.65 (Glu1-Fibrinopeptide from the calibration mixture) was used to calibrate the MS/MS spectra to a mass tolerance of 0.1 Da.”
# as §7
# trypsin-3 = target: T3, trypsin-3 (Homo sapiens, UniProt P35030); test: Cleavage of peptides by purified trypsin-3, MALDI-TOF/TOF
# T3 sequence (P35030 1-304): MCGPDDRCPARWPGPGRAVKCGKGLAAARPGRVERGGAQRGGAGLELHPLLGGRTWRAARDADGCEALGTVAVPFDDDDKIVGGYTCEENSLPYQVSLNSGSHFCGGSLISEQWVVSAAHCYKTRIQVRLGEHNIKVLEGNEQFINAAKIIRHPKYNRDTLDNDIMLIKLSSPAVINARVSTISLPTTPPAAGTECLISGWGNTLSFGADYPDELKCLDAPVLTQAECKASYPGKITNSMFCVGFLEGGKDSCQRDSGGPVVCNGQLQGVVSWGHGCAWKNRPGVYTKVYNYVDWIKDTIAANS
# Excerpt: as §1, §2, §3, §4, §5
# tryptase = tryptase (Homo sapiens, UniProt Q15661); test: Cleavage of peptides by purified tryptase, MALDI-TOF/TOF
# tryptase, sequence (Q15661 31-275): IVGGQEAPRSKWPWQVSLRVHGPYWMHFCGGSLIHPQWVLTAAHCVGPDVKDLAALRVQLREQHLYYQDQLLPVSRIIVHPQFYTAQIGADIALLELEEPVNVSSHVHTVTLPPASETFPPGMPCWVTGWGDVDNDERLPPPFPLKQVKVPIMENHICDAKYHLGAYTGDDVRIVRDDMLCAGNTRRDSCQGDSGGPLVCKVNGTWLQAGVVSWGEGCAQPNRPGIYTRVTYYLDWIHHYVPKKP
# Excerpt: as §1, §2, §3, §4, §5
# trypsin-1 = trypsin-1 (Homo sapiens, UniProt P07477); test: Cleavage of peptides by purified trypsin-1, MALDI-TOF/TOF
# Excerpt: as §1, §2, §3, §4, §5
# [1] = 37 °C, 2, 5, 10 and 30 min, stopped with 2% TFA
# [2] = 37 °C, time points 2, 5, 10, 30 min
# pancreatic elastase I, sequence (P00772 27-266): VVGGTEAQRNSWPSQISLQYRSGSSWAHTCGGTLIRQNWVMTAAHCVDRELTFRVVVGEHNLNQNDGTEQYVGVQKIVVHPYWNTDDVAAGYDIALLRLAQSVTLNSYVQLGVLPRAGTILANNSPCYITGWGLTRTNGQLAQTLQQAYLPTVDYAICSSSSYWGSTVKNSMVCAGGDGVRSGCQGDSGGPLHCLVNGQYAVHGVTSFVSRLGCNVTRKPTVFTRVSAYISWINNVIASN
# trypsin-2, sequence (P07478 24-247): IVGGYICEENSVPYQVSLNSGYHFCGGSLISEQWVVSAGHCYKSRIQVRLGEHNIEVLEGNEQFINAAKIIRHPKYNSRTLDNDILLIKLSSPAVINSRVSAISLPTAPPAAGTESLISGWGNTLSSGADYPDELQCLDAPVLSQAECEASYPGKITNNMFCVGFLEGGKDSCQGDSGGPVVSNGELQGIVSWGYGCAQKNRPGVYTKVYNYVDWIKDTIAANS
compound,measurement,setting,value
CC[C@H](C)[C@H](NC(=O)[C@H](C)NC(=O)[C@H](CC(N)=O)NC(=O)[C@H](CCCCN)NC(=O)[C@H](Cc1ccccc1)NC(=O)[C@H](CC(C)C)NC(=O)[C@@H](NC(=O)[C@@H](NC(=O)[C@H](CC(C)C)NC(=O)[C@@H]1CCCN1C(=O)[C@@H](NC(=O)[C@H](CCC(N)=O)NC(=O)[C@H](CO)NC(=O)[C@H](CCCCN)NC(=O)[C@H](CCC(=O)O)NC(=O)[C@H](CO)NC(=O)[C@@H](NC(=O)[C@H](CCSC)NC(=O)[C@H](Cc1ccccc1)NC(=O)CNC(=O)CNC(=O)[C@@H](N)Cc1ccc(O)cc1)[C@@H](C)O)[C@@H](C)O)C(C)C)[C@@H](C)O)C(=O)N[C@H](C(=O)N[C@@H](CCCCN)C(=O)N[C@@H](CC(N)=O)C(=O)N[C@@H](C)C(=O)N[C@@H](Cc1ccc(O)cc1)C(=O)N[C@@H](CCCCN)C(=O)N[C@@H](CCCCN)C(=O)NCC(=O)N[C@@H](CCC(=O)O)C(=O)O)[C@@H](C)CC [β-endorphin],"Efficiency of the first cleavage in the peptide, Pancreatic Elastase",pancreatic elastase I; [1],+++ (ultrafast processing within 2 min)
same,"Incubation time at which the first cleavage or decrease of the full-length peptide was observed, pancreatic elastase",pancreatic elastase I; [2],2 min
same,"Efficiency of the first cleavage in the peptide, Trypsin-2",trypsin-2; [1],+++ (ultrafast processing within 2 min)
same,"Incubation time at which the first cleavage or decrease of the full-length peptide was observed, trypsin-2",trypsin-2; [2],2 min
same,"Efficiency of the first cleavage in the peptide, Cathepsin G",cathepsin G; [1],+++ (ultrafast processing within 2 min)
same,"Incubation time at which the first cleavage or decrease of the full-length peptide was observed, cathepsin G",cathepsin G; [2],2 min
same,"Efficiency of the first cleavage in the peptide, Thrombin",thrombin; [1],−
same,"Incubation time at which the first cleavage or decrease of the full-length peptide was observed, thrombin",thrombin; [2],> 30 min
same,"Efficiency of the first cleavage in the peptide, Neutrophil Elastase",neutrophil elastase; [1],+++ (ultrafast processing within 2 min)
same,"Incubation time at which the first cleavage or decrease of the full-length peptide was observed, neutrophil elastase",neutrophil elastase; [2],2 min
same,"Efficiency of the first cleavage in the peptide, Trypsin-3",trypsin-3; [1],−
same,"Incubation time at which the first cleavage or decrease of the full-length peptide was observed, trypsin-3",trypsin-3; [2],> 30 min
same,"Efficiency of the first cleavage in the peptide, Tryptase",tryptase; [1],+++ (ultrafast processing within 2 min)
same,"Incubation time at which the first cleavage or decrease of the full-length peptide was observed, tryptase",tryptase; [2],2 min
same,"Efficiency of the first cleavage in the peptide, Trypsin-1",trypsin-1; [1],+++ (ultrafast processing within 2 min)
same,"Incubation time at which the first cleavage or decrease of the full-length peptide was observed, trypsin-1",trypsin-1; [2],2 min

# — article PMC8509398, “Proteolytic Cleavage of Bioactive Peptides and Protease-Activated Receptors in Acute and Post-Colitis” (International Journal of Molecular Sciences, 2021)
